One assay concerns the target Acetylcholinesterase (Homo sapiens, UniProt P22303). Kind of assay: Inhibition of AChE (unknown origin).
The target in the next assay is Cholinesterase (Homo sapiens, UniProt P06276). Briefly: Inhibition of BChE (unknown origin).

Here are results for one molecule from ChEMBL document CHEMBL5321215, “Discovery of quinazolin-4(3H)-one derivatives as novel AChE inhibitors with anti-inflammatory activities” (Eur J Med Chem, 2023).

Chain of Acetylcholinesterase (P22303 whole entry): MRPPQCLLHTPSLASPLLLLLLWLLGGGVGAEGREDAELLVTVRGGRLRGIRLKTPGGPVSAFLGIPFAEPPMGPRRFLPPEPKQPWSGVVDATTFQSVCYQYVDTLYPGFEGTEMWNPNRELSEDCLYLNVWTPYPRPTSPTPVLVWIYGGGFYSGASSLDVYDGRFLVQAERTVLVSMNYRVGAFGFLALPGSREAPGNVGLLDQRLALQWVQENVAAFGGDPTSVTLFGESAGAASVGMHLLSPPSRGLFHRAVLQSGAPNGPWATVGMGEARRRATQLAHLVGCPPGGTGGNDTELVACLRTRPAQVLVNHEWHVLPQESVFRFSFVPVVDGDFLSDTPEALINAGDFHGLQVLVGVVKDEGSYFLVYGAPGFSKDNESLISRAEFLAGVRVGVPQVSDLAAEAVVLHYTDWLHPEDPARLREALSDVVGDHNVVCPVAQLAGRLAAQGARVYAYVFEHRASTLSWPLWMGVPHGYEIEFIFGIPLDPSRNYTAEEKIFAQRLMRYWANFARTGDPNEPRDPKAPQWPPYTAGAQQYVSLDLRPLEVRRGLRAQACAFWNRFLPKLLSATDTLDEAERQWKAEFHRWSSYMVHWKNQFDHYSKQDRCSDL
Chain of Cholinesterase (P06276 whole entry): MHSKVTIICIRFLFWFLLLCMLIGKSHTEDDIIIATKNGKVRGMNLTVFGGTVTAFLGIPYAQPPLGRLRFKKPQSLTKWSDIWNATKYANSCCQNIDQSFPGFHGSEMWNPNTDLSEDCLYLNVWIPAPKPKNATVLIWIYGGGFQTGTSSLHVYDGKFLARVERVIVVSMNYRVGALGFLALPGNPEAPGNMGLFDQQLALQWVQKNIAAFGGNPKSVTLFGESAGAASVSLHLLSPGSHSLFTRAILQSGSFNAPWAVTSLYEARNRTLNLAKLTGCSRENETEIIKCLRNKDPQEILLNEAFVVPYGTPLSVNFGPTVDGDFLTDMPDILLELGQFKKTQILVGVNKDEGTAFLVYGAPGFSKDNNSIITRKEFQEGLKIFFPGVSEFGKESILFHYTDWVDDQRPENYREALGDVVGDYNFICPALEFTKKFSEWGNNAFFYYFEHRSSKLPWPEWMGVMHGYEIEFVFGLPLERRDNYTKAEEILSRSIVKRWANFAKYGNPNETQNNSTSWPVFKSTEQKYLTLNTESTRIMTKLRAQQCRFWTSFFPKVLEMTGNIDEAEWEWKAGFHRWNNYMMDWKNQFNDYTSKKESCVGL

For `CON(C)C(=O)Oc1ccccc1C(=O)NCCc1c[nH]c2ccccc12`, the IC50 – broadly, the concentration needed to halve the response being measured – was 3.24 µM against Acetylcholinesterase and 1.84 µM on Cholinesterase.
